Laboratory results: patent US11572588B2, “Methods of evaluating treatment efficacy and/or treatment duration in mycobacterial diseases” (priority 2017, dated 2023)

System: M. tuberculosis Erdman strain
Assay: highly lethal in vitro drug exposure of log-phase M. tuberculosis; killing and pre-rRNA/rRNA by RNAseq and ddPCR
Type: cell-based
Settings: for pre-rRNA in M tuberculosis that survived exposure (FIG. 5, RNAseq reads): 48 h lethal exposure; for M. tuberculosis killed: 48 h of exposure, lethal dose, log phase culture; for 16S normalized counts, Transcripts per Million (TPM) / 23S normalized counts, Transcripts per Million (TPM) / ETS1 normalized counts, Transcripts per Million (TPM) / ITS1 normalized counts, Transcripts per Million (TPM) / ITS1/23S, Pre-RNA/23S (×10^4) / ETS1/23S, Pre-RNA/23S (×10^4): RNAseq; for ITS1/23S, Pre-RNA/23S (×10^4): control 466; for ETS1/23S, Pre-RNA/23S (×10^4): control 514; for effect on ETS1 and ITS1: relative to control
[1] = lethal in vitro exposure, Day 2
[2] = lethal in vitro exposure, Day 7
[3] = lethal in vitro exposure, Day 5

COc1nc2ccc(Br)cc2cc1[C@@H](c1ccccc1)[C@@](O)(CCN(C)C)c1cccc2ccccc12 [Bedaquiline, bedaquiline]
pre-rRNA in M tuberculosis that survived exposure (FIG. 5, RNAseq reads): negligible pre-rRNA
M. tuberculosis killed: ~99.9%
16S normalized counts, Transcripts per Million (TPM) [1]: 343,978 TPM
23S normalized counts, Transcripts per Million (TPM) [1]: 654,924 TPM
ETS1 normalized counts, Transcripts per Million (TPM) [1]: 548 TPM
ITS1 normalized counts, Transcripts per Million (TPM) [1]: 551 TPM
ITS1/23S, Pre-RNA/23S (×10^4) [1]: 8.4 ×10^4
ETS1/23S, Pre-RNA/23S (×10^4) [1]: 8.4 ×10^4
16S normalized counts, Transcripts per Million (TPM) [2]: 208,644 TPM
23S normalized counts, Transcripts per Million (TPM) [2]: 788,154 TPM
ETS1 normalized counts, Transcripts per Million (TPM) [2]: 1,778 TPM
ITS1 normalized counts, Transcripts per Million (TPM) [2]: 1,425 TPM
ITS1/23S, Pre-RNA/23S (×10^4) [2]: 18.1 ×10^4
ETS1/23S, Pre-RNA/23S (×10^4) [2]: 22.6 ×10^4
decrease of ETS1/23S relative to control (lethal in vitro exposure): > 20 fold
decrease of ITS1/23S relative to control (lethal in vitro exposure): > 20 fold

CO[C@H]1/C=C/O[C@@]2(C)Oc3c(C)c(O)c4c(O)c(c(/C=N/N5CCN(C)CC5)c(O)c4c3C2=O)NC(=O)/C(C)=C\C=C\[C@H](C)[C@H](O)[C@@H](C)[C@@H](O)[C@@H](C)[C@H](OC(C)=O)[C@@H]1C [Rifampin, rifampin]
pre-rRNA in M tuberculosis that survived exposure (FIG. 5, RNAseq reads): negligible pre-rRNA
M. tuberculosis killed: 99.99%
16S normalized counts, Transcripts per Million (TPM) [1]: 375,111 TPM
23S normalized counts, Transcripts per Million (TPM) [1]: 624,759 TPM
ETS1 normalized counts, Transcripts per Million (TPM) [1]: 58 TPM
ITS1 normalized counts, Transcripts per Million (TPM) [1]: 72 TPM
ITS1/23S, Pre-RNA/23S (×10^4) [1]: 1.15 ×10^4
ETS1/23S, Pre-RNA/23S (×10^4) [1]: 0.92 ×10^4
16S normalized counts, Transcripts per Million (TPM) [3]: 306,538 TPM
23S normalized counts, Transcripts per Million (TPM) [3]: 693,196 TPM
ETS1 normalized counts, Transcripts per Million (TPM) [3]: 30 TPM
ITS1 normalized counts, Transcripts per Million (TPM) [3]: 235 TPM
ITS1/23S, Pre-RNA/23S (×10^4) [3]: 3.39 ×10^4
ETS1/23S, Pre-RNA/23S (×10^4) [3]: 0.44 ×10^4
decrease of ETS1/23S relative to control (lethal in vitro exposure): > 100 fold
decrease of ITS1/23S relative to control (lethal in vitro exposure): > 100 fold
effect on ETS1 and ITS1 (lethal in vitro exposure): nearly complete abrogated ETS1 and ITS1

[H]/N=C(/N)N[C@H]1[C@H](O)[C@@H](O)[C@H](O[C@@H]2O[C@@H](C)[C@](O)(C=O)[C@H]2O[C@@H]2O[C@@H](CO)[C@H](O)[C@@H](O)[C@@H]2NC)[C@@H](N/C(N)=N\[H])[C@@H]1O [Streptomycin, streptomycin]
pre-rRNA in M tuberculosis that survived exposure (FIG. 5, RNAseq reads): abundant pre-rRNA
M. tuberculosis killed: 99.99%
16S normalized counts, Transcripts per Million (TPM) [1]: 453,930 TPM
23S normalized counts, Transcripts per Million (TPM) [1]: 430,311 TPM
ETS1 normalized counts, Transcripts per Million (TPM) [1]: 78,749 TPM
ITS1 normalized counts, Transcripts per Million (TPM) [1]: 37,010 TPM
ITS1/23S, Pre-RNA/23S (×10^4) [1]: 860 ×10^4
ETS1/23S, Pre-RNA/23S (×10^4) [1]: 1,830 ×10^4
16S normalized counts, Transcripts per Million (TPM) [3]: 406,987 TPM
23S normalized counts, Transcripts per Million (TPM) [3]: 488,000 TPM
ETS1 normalized counts, Transcripts per Million (TPM) [3]: 72,994 TPM
ITS1 normalized counts, Transcripts per Million (TPM) [3]: 32,019 TPM
ITS1/23S, Pre-RNA/23S (×10^4) [3]: 656 ×10^4
ETS1/23S, Pre-RNA/23S (×10^4) [3]: 1,496 ×10^4
effect on ETS1 and ITS1 (lethal in vitro exposure): increased ETS1 and ITS1

NNC(=O)c1ccncc1 [Isoniazid, isoniazid]
pre-rRNA in M tuberculosis that survived exposure (FIG. 5, RNAseq reads): abundant pre-rRNA
M. tuberculosis killed: 99.99%
16S normalized counts, Transcripts per Million (TPM) [1]: 423,197 TPM
23S normalized counts, Transcripts per Million (TPM) [1]: 556,210 TPM
ETS1 normalized counts, Transcripts per Million (TPM) [1]: 12,092 TPM
ITS1 normalized counts, Transcripts per Million (TPM) [1]: 8,502 TPM
ITS1/23S, Pre-RNA/23S (×10^4) [1]: 153 ×10^4
ETS1/23S, Pre-RNA/23S (×10^4) [1]: 217 ×10^4
16S normalized counts, Transcripts per Million (TPM) [2]: 451,670 TPM
23S normalized counts, Transcripts per Million (TPM) [2]: 519,579 TPM
ETS1 normalized counts, Transcripts per Million (TPM) [2]: 16,987 TPM
ITS1 normalized counts, Transcripts per Million (TPM) [2]: 11,763 TPM
ITS1/23S, Pre-RNA/23S (×10^4) [2]: 226 ×10^4
ETS1/23S, Pre-RNA/23S (×10^4) [2]: 327 ×10^4
decrease of ETS1/23S (lethal in vitro exposure): ~50%
decrease of ITS1/23S (lethal in vitro exposure): ~50%
